In patent publication US8889667B2 (Agios Pharmaceuticals, Inc, priority 2010, dated 2014):

Target: PKM2 (Homo sapiens, UniProt P14618)
Assay: PKM2 Assay (activation, LDH-coupled, absorbance at 340 nm)
Type: biochemical
How it was run: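 Human PKM2 (50 ng/well) was preincubated with compound and coupling mix for 30 min at 4 °C without ADP. Reactions were then started with ADP (0.7 mM) alongside PEP 0.15 mM, NADH 180 μM and LDH, in Tris pH 7.5/KCl/MgCl2/DTT/BSA buffer. A340 was followed at 25 °C and activation reported as AC50.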

PKM2, sequence (P14618 whole entry): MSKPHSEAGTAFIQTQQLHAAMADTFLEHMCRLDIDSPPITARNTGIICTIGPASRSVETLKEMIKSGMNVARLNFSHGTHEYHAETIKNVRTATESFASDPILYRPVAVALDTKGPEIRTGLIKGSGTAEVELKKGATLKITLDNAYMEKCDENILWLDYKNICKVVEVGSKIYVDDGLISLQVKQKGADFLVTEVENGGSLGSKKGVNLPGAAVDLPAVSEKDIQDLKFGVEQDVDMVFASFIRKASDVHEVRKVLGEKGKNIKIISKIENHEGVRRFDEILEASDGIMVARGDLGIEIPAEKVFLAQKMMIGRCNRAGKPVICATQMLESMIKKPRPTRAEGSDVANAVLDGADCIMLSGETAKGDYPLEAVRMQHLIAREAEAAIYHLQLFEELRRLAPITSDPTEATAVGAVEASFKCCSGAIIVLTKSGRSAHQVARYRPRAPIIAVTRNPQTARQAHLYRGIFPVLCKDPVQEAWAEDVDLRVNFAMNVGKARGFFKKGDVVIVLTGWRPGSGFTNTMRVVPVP

Row | Structure (SMILES) | AC50 (Table 5) [nM] | AC50 (Table 4) [nM]
1 | O=C(c1ccc(NS(=O)(=O)c2cccc3cccnc23)cc1)N1C2CCC1CN(CC1CC1)C2 [Compound 228, N-(4-(3-(cyclopropylmethyl)-3,8-diazabicyclo[3.2.1]octane-8-carbonyl)phenyl)quinoline-8-sulfonamide] |  | 100 to 500
2 | O=C1CN(C(=O)c2ccc(NS(=O)(=O)c3cccc4cccnc34)cc2)CCN1Cc1cc(F)cc(F)c1 [Compound 216, N-(4-(4-(3,5-difluorobenzyl)-3-oxopiperazine-1-carbonyl)phenyl)quinoline-8-sulfonamide] |  | < 100
3 | O=C1CN(C(=O)c2ccc(NS(=O)(=O)c3cccc4cccnc34)cc2)CCN1CC1CC1 [Compound 214] |  | 100 to 500
4 | CC(c1c(F)ccc(F)c1F)N1CCN(C(=O)c2ccc(NS(=O)(=O)c3cccc4cccnc34)cc2)[C@H](C)C1 (stereo partly drawn) [Compound 190, N-(4-((2R)-2-methyl-4-(1-(2,3,6-trifluorophenyl)ethyl)piperazine-1-carbonyl)phenyl)quinoline-8-sulfonamide] |  | < 100
5 | C[C@@H]1CN(Cc2c(F)ccc(F)c2F)CCN1C(=O)c1ccc(NS(=O)(=O)c2cccc3cccnc23)cc1 [Compound 132, (R)—N-(4-(2-methyl-4-(2,3,6-trifluorobenzyl)piperazine-1-carbonyl)phenyl)quinoline-8-sulfonamide] |  | < 100
6 | C[C@H]1CN(CC2CCOC2)CCN1C(=O)c1ccc(NS(=O)(=O)c2cccc3cccnc23)cc1 (stereo partly drawn) [Compound 139, N-(4-((2S)-2-methyl-4-((tetrahydrofuran-3-yl)methyl)piperazine-1-carbonyl)phenyl)quinoline-8-sulfonamide] |  | 100 to 500
7 | C[C@H]1CN(Cc2cc(F)c(F)cc2F)CCN1C(=O)c1ccc(NS(=O)(=O)c2cccc3cccnc23)cc1 [Compound 145, (S)—N-(4-(2-methyl-4-(2,4,5-trifluorobenzyl)piperazine-1-carbonyl)phenyl)quinoline-8-sulfonamide] |  | < 100
8 | CC1CN(Cc2c(F)cc(F)cc2F)CC(C)N1C(=O)c1ccc(NS(=O)(=O)c2cccc3cccnc23)cc1 (stereo not shown) [Compound 202, N-(4-(2,6-dimethyl-4-(2,4,6-trifluorobenzyl)piperazine-1-carbonyl)phenyl)quinoline-8-sulfonamide] |  | 100 to 500
9 | C[C@@H]1CN(C(=O)OCCC2CCCC2)CCN1C(=O)c1ccc(NS(=O)(=O)c2cccc3cccnc23)cc1 [Compound 122, (R)-2-Cyclopentylethyl-3-methyl-4-(4-(quinoline-8-sulfonamido)benzoyl)piperazine-1-carboxylate] |  | < 100
10 | C[C@H]1CN(C(=O)OCC2CC2)CCN1C(=O)c1ccc(NS(=O)(=O)c2cccc3cccnc23)cc1 [Compound 111, (S)-Cyclopropylmethyl3-methyl-4-(4-(quinoline-8-sulfonamido)benzoyl)piperazine-1-carboxylate] |  | < 100
11 | C[C@@H]1CN(CC2CCCC2)CCN1C(=O)c1ccc(NS(=O)(=O)c2cccc3cccnc23)cc1 [Compound 114, (R)—N-(4-(4-(cyclopentylmethyl)-2-methylpiperazine-1-carbonyl)phenyl)quinoline-8-sulfonamide] |  | < 100
12 | CC(C)[C@H]1CN(C(C)c2ccc(F)cc2)CCN1C(=O)c1ccc(NS(=O)(=O)c2cccc3cccnc23)cc1 (stereo partly shown) [Compound 177] |  | 1000 to 20000
13 | COc1cccc(F)c1CN1CCN(C(=O)c2ccc(NS(=O)(=O)c3cccc4cccnc34)c(OC(F)(F)F)c2)CC1 [Compound 308, N-(4-(4-(2-fluoro-6-methoxybenzyl)piperazine-1-carbonyl)-2-(trifluoromethoxy)phenyl)quinoline-8-sulfonamide] | 500 to 1000 | 
14 | O=C(c1ccc(NS(=O)(=O)c2cccc3cccnc23)cc1)N1CCN(C(=O)c2cnns2)CC1 [Compound 313, N-(4-(4-(1,2,3-thiadiazole-5-carbonyl)piperazine-1-carbonyl)phenyl)quinoline-8-sulfonamide] | < 100 | 
15 | CCOC(=O)N1CCN(C(=O)c2ccc(NS(=O)(=O)c3cccc4cccnc34)cc2)[C@H](C)C1 [Compound 109, (R)-Ethyl 3-methyl-4-(4-(quinoline-8-sulfonamido)benzoyl)piperazine-1-carboxylate] |  | 100 to 500
16 | C[C@H]1CN(Cc2ccc(F)c(F)c2F)CCN1C(=O)c1ccc(NS(=O)(=O)c2cccc3cccnc23)cc1 [Compound 154, (S)—N-(4-(2-methyl-4-(2,3,4-trifluorobenzyl)piperazine-1-carbonyl)phenyl)quinoline-8-sulfonamide] |  | 100 to 500
17 | O=C(c1ccc(NS(=O)(=O)c2cccc3cccnc23)cc1)N1CCN(CC2CC2)C[C@@H]1c1ccccc1 [Compound 180] |  | 100 to 500
18 | CC(C)[C@H]1CN(Cc2ccc(F)cc2)CCN1C(=O)c1ccc(NS(=O)(=O)c2cccc3cccnc23)cc1 [Compound 175] |  | 1000 to 20000
19 | C[C@@H]1CN(C(=O)c2ccc(NS(=O)(=O)c3cccc4cccnc34)cc2)CCN1C(=O)c1ccccn1 [Compound 102] |  | 100 to 500

The next lines start with the values.

Row | AC50 (Table 5) [nM] | AC50 (Table 4) [nM] | Structure (SMILES)
20 | < 100 |  | [2H]C(c1ccc(F)cc1)N1CCN(C(=O)c2ccc(NS(=O)(=O)c3cccc4cccnc34)cc2)CC1 (stereo not shown) [Compound 448, N-(4-(4-(4-fluorobenzyl)piperazine-1-carbonyl)phenyl)quinoline-8-sulfonamide-(D)]
21 | 100 to 500 |  | O=C(c1ccc(NS(=O)(=O)c2cccc3cccnc23)c(OC(F)(F)F)c1)N1CCN(C2(c3ccc(F)cc3)CC2)CC1 [Compound 402, N-(4-(4-(1-(4-fluorophenyl)cyclopropyl)piperazine-1-carbonyl)-2-(trifluoromethoxy)phenyl)quinoline-8-sulfonamide]
22 | 1000 to 20000 |  | O=C(c1ccc(NS(=O)(=O)c2cccc3cccnc23)c(C(F)(F)F)c1)N1CCN(CC2CCCO2)CC1 (stereo not shown) [Compound 329, N-(4-(4-((tetrahydrofuran-2-yl)methyl)piperazine-1-carbonyl)-2-(trifluoromethyl)phenyl)quinoline-8-sulfonamide]
23 | 100 to 500 |  | O=C(c1ccc(NS(=O)(=O)c2cccc3cccnc23)cc1)N1CCN(C(=O)C2CCOCC2)CC1 [Compound 417, N-(4-(4-(tetrahydro-2H-pyran-4-carbonyl)piperazine-1-carbonyl)phenyl)quinoline-8-sulfonamide]
24 | 100 to 500 |  | O=C(c1ccc(NS(=O)(=O)c2cccc3cccnc23)c(OC(F)(F)F)c1)N1CCN(Cc2ccc(F)c(F)c2)CC1 [Compound 378, N-(4-(4-(3,4-difluorobenzyl)piperazine-1-carbonyl)-2-(trifluoromethoxy)phenyl)quinoline-8-sulfonamide]
25 | 500 to 1000 |  | O=C(Cc1ccccc1F)N1CCN(C(=O)c2ccc(NS(=O)(=O)c3cccc4cccnc34)c(OC(F)(F)F)c2)CC1 [Compound 361]
26 | < 100 |  | O=C(c1ccc(NS(=O)(=O)c2cccc3cccnc23)cc1Cl)N1CCN(Cc2ccc(F)cc2)CC1 [Compound 431, N-(3-chloro-4-(4-(4-fluorobenzyl)piperazine-1-carbonyl)phenyl)quinoline-8-sulfonamide]
27 | 100 to 500 |  | O=C(c1ccc(NS(=O)(=O)c2cccc3cccnc23)c(OC(F)(F)F)c1)N1CCN(Cc2ccccc2F)CC1 [Compound 335, N-(4-(4-(2-fluorobenzyl)piperazine-1-carbonyl)-2-(trifluoromethoxy)phenyl)quinoline-8-sulfonamide]
28 | < 100 |  | [2H]C(c1cc(F)cc(F)c1)N1CCN(C(=O)c2ccc(NS(=O)(=O)c3cccc4cccnc34)cc2)CC1 (stereo not shown) [Compound 450, N-(4-(4-(3,5-difluorobenzyl)piperazine-1-carbonyl)phenyl)quinoline-8-sulfonamide-(D)]
29 | 100 to 500 |  | O=C(c1ccc(NS(=O)(=O)c2cccc3cccnc23)cc1Cl)N1CCN(CC2CCOCC2)CC1 [Compound 440, N-(3-chloro-4-(4-((tetrahydro-2H-pyran-4-yl)methyl)piperazine-1-carbonyl)phenyl)quinoline-8-sulfonamide]
30 | 100 to 500 |  | O=C(c1ccc(NS(=O)(=O)c2cccc3cccnc23)c(OC(F)(F)F)c1)N1CCN(Cc2ccc(Cl)cc2F)CC1 [Compound 339, N-(4-(4-(4-chloro-2-fluorobenzyl)piperazine-1-carbonyl)-2-(trifluoromethoxy)phenyl)quinoline-8-sulfonamide]
31 | < 100 |  | O=C(c1ccc(NS(=O)(=O)c2cccc3cccnc23)cc1Cl)N1CCN(Cc2cc(F)cc(F)c2)CC1 [Compound 426, N-(3-chloro-4-(4-(3,5-difluorobenzyl)piperazine-1-carbonyl)phenyl)quinoline-8-sulfonamide]
32 | < 100 |  | COc1cc(C(=O)N2CCN(C(C)(C)c3ccccc3)CC2)ccc1NS(=O)(=O)c1cccc2cccnc12 [Compound 356, N-(2-methoxy-4-(4-(2-phenylpropan-2-yl)piperazine-1-carbonyl)phenyl)quinoline-8-sulfonamide]
33 | < 100 |  | COc1cc(NS(=O)(=O)c2cccc3cccnc23)ccc1C(=O)N1CCN(C2(c3ccc(F)cc3)CC2)CC1 [Compound 401, N-(4-(4-(1-(4-fluorophenyl)cyclopropyl)piperazine-1-carbonyl)-3-methoxyphenyl)quinoline-8-sulfonamide]
34 | < 100 |  | O=C(c1ccc(NS(=O)(=O)c2cccc3cccnc23)cc1)N1CCN(Cc2cc(F)cc(F)c2)CC1 [Compound 394, N-(4-(4-(3,5-difluorobenzyl)piperazine-1-carbonyl)phenyl)quinoline-8-sulfonamide]
35 | < 100 |  | O=C(c1ccc(NS(=O)(=O)c2cccc3cccnc23)cc1Cl)N1CCN(Cc2cc(F)c(F)cc2F)CC1 [Compound 433, N-(3-chloro-4-(4-(2,4,5-trifluorobenzyl)piperazine-1-carbonyl)phenyl)quinoline-8-sulfonamide]
36 | < 100 |  | O=C(c1ccc(NS(=O)(=O)c2cccc3cccnc23)cc1)N1CCN(C(c2ccc(F)cc2)C(F)(F)F)CC1 (stereo not shown) [Compound 351, N-(4-(4-(2,2,2-trifluoro-1-(4-fluorophenyl)ethyl)piperazine-1-carbonyl)phenyl)quinoline-8-sulfonamide]
37 | < 100 |  | CC(C)(c1cc(F)cc(F)c1)N1CCN(C(=O)c2ccc(NS(=O)(=O)c3cccc4cccnc34)cc2)CC1 [Compound 410]
